Test results: paper PMC4967021 (Biochemical and biophysical research communications, 2016)
pKd: −log10 of the molar value.

Biological target: T1, CCL21 (Homo sapiens, UniProt O00585)
T1 sequence (O00585 24-134): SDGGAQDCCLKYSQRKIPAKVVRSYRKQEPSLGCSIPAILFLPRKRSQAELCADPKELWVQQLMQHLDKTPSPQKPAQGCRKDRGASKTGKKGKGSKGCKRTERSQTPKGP
Test: […]-1H HSQC NMR titration, chemical shift perturbation fit with ligand depletion
Type: binding
Details: 100 µM 15N-CCL21, 25 mM deuterated MES pH 6.0, 10% D2O, 0.2% NaN3

pKd: ~3.30
Compound: O=C(O)C1=C[C@H](O)[C@@H](OS(=O)(=O)O)[C@H](O[C@H]2[C@H](O)[C@@H](NS(=O)(=O)O)C(O)O[C@@H]2COS(=O)(=O)O)O1 (stereo partly shown) [heparin disaccharide I-S]
